The assay has as its target T1, ACE (angiotensin-I converting enzyme, from rabbit lung) (Oryctolagus cuniculus, UniProt P12822).
T1 sequence (P12822 34-1310): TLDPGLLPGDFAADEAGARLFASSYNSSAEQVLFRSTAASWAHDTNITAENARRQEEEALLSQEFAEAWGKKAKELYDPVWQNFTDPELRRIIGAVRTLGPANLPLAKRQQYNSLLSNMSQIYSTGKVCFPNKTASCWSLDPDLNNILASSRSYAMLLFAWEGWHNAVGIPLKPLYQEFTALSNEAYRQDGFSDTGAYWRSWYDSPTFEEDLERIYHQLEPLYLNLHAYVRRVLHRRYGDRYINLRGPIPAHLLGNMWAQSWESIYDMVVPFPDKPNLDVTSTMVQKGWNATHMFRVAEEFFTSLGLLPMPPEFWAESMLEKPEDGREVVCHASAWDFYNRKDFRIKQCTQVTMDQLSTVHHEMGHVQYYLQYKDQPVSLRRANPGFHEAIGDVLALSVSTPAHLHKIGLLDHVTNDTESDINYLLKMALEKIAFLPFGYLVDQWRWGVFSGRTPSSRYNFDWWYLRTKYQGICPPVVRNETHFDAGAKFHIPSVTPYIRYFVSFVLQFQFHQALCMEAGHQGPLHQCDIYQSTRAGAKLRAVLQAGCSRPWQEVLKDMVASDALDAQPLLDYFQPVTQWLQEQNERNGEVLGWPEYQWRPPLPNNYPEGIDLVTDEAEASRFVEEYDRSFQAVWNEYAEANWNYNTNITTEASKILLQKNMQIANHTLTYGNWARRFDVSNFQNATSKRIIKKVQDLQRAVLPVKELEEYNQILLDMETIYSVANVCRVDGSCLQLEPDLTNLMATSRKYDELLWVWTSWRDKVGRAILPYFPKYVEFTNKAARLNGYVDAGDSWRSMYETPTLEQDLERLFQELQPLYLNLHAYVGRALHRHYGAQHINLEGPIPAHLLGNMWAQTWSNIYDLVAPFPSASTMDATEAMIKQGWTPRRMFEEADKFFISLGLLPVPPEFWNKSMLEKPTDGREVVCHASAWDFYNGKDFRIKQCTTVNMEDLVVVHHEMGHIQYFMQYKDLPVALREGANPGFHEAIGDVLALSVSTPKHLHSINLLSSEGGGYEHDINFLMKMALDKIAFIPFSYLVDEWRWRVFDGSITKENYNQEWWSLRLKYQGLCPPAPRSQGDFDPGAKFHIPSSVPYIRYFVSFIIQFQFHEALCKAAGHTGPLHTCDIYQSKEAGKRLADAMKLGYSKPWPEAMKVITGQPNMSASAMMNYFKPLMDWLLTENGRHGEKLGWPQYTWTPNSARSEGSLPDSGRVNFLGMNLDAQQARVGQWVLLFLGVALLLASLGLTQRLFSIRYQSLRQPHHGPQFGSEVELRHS
Kind of assay: hippuric acid release from HHL, cyanuric chloride colour at […] nm. The class given is biochemical.

Molecules are shown by their SMILES.

For `NCCCC[C@H](N[C@@H](CCc1ccccc1)C(=O)O)C(=O)N1CCC[C@H]1C(=O)O` [Lisinopril], it took 764 nM to reach half-maximal inhibition (IC50).

The record behind these values is paper doi:10.1101/2020.04.09.034306v1 (biorxiv, 2020).
